Converted amounts (≈) assume the structure as drawn.
What was measured:
Format in all cases: cell-based
[1] = test system: Pseudomonas aeruginosa PAM 1020; assay: MIC broth microdilution, P. aeruginosa PAM 1020 (wild type); conditions: P. aeruginosa PAM 1020
[2] = test system: Pseudomonas aeruginosa PAM 1154; assay: MIC broth microdilution, P. aeruginosa PAM 1154 (OprM::Hg); conditions: P. aeruginosa PAM 1154 OprM::Hg
[3] = test system: Pseudomonas aeruginosa PAM 1135; assay: MIC broth microdilution, P. aeruginosa PAM 1135 (high level UPA resistance); conditions: P. aeruginosa PAM 1135 UPA1^r
[4] = test system: Pseudomonas aeruginosa PAM 1323; assay: MIC broth microdilution, P. aeruginosa PAM 1323 (medium level UPA resistance)
Protocol: Compounds were tested against several panels of bacteria. In a first panel, Table 3, several strains of Pseudomonas aeruginosa, Escherichia coli and Staphylococcus aureus were employed as the target bacteria.
For the bacteria in Table 3, the assay was performed in Mueller-Hinton Broth (MHB) with a final bacterial inoculum of 5×10^5 CFU/ml and a final volume of 100 μl. Control drugs, including imipenem and pacidimycin 4, and the test compounds were prepared at a concentration which was twice the desired final concentration (256 μg/ml). Dilution of the controls and the test compounds was accomplished directly on the test plates by serial 2-fold dilution using a multi-channel pipette. Both a positive and a negative growth control was included in each plate.
The bacterial inocula were prepared as follows. Bacterial strains were grown overnight at 35° C. in MHB. […] The culture was then diluted 1:10 and allowed to grow for an additional one hour at 35° C. in a shaking incubator. The inocula were then prepared by diluting the early log phase (one hour) cultures 1:2000 with fresh MHB. A volume of 50 μl of the inocula was added to each well, resulting in an inoculum of approximately 5×10^5 CFU/ml. The exact inocula were determined by putting 10 μl of 10-fold serial dilution of the bacterial suspensions onto TSA. After overnight incubation at 35° C., colony-forming units were counted manually.
The microtiter plates were incubated for 20 hours at 35° C. and were then read using a microtiterplate reader (Molecular Devices) at 650 nm as well as being visually observed using a microtiterplate reading mirror.

[5] = test system: Escherichia Coli MC 4100; assay: MIC broth microdilution, E. coli MC 4100 (wild type); conditions: E. coli MC 4100
[6] = test system: Escherichia Coli MC 4100 AcrAB; assay: MIC broth microdilution, E. coli MC 4100 AcrAB (ΔAcrAB); conditions: E. coli AcrAB
[7] = test system: Escherichia Coli MC 4100 AcrAB UPA3r; assay: MIC broth microdilution, E. coli MC 4100 AcrAB UPA3r (ΔAcrAB, UPA resistant); conditions: E. coli AcrAB UPA3^r
[8] = test system: Staphylococcus aureus ATCC 29213; assay: MIC broth microdilution, S. aureus ATCC 29213 (wild type); conditions: S. aureus ATCC 29213
[9] = test system: Staphylococcus aureus 8325-4; assay: MIC broth microdilution, S. aureus 8325-4 (wild type); conditions: S. aureus 8325-4
[10] = test system: Pasteurella multocida pm002; assay: MIC broth microdilution, P. multocida pm002 (wild type)

Compound: CC(C(NC(=O)C(Cc1ccccc1)NC(=O)NC(Cc1ccc(O)cc1)C(=O)O)C(=O)NCC1CC(O)C(n2ccc(=O)[nH]c2=O)O1)N(C)C(=O)C(N)Cc1ccccc1 [Compound 100, 1-[5′-[(2S,3S)-N^2-[N-[[(1S)-1-Carboxy-4-hydroxyphenethyl]carbamoyl]-L-phenylalanyl]-N^3-L-phenylalanyl-N^3-methyl-2,3-diaminobutyramido]-3′,5′-dideoxy-α-L-arabinofuranosyl]uracil]
- MIC (μg/ml) Broth microdilution [1]: 32 µg/mL (≈ 38 µM)
- MIC (μg/ml) Broth microdilution [2]: 8 µg/mL (≈ 9.49 µM)
- MIC (μg/ml) Broth microdilution [3]: >512 µg/mL
- MIC (μg/ml) Broth microdilution [4]: >512 µg/mL
- MIC (μg/ml) Broth microdilution [5]: 8 µg/mL (≈ 9.49 µM)
- MIC (μg/ml) Broth microdilution [6]: <1 µg/mL
- MIC (μg/ml) Broth microdilution [7]: 2 µg/mL (≈ 2.37 µM)
- MIC (μg/ml) Broth microdilution [8]: >512 µg/mL
- MIC (μg/ml) Broth microdilution [9]: 512 µg/mL (≈ 607 µM)
- MIC (μg/ml) Broth microdilution [10]: 256 µg/mL (≈ 304 µM)

Compound: C[C@H](N)C(=O)N(C)[C@@H](C)[C@H](NC(=O)[C@H](Cc1ccc2ccccc2c1)NC(=O)N[C@@H](Cc1c[nH]c2ccccc12)C(=O)O)C(=O)NC[C@H]1C[C@@H](O)[C@H](n2ccc(=O)[nH]c2=O)O1 [Compound 153]
- MIC (μg/ml) Broth microdilution [1]: 128 µg/mL (≈ 152 µM)
- MIC (μg/ml) Broth microdilution [2]: 16 µg/mL (≈ 19 µM)
- MIC (μg/ml) Broth microdilution [3]: >512 µg/mL
- MIC (μg/ml) Broth microdilution [4]: >512 µg/mL
- MIC (μg/ml) Broth microdilution [5]: 512 µg/mL (≈ 610 µM)
- MIC (μg/ml) Broth microdilution [6]: 2 µg/mL (≈ 2.38 µM)
- MIC (μg/ml) Broth microdilution [7]: 128 µg/mL (≈ 152 µM)
- MIC (μg/ml) Broth microdilution [8]: 512 µg/mL (≈ 610 µM)
- MIC (μg/ml) Broth microdilution [9]: 256 µg/mL (≈ 305 µM)
- MIC (μg/ml) Broth microdilution [10]: 64 µg/mL (≈ 76.2 µM)

Compound: CSCCC(N)C(=O)N(C)C(C)C(NC(=O)C(C)NC(=O)NC(Cc1c[nH]c2ccccc12)C(=O)O)C(=O)NCC1CC(O)C(n2ccc(=O)[nH]c2=O)O1 [Compound 168, 1-[5′-[(2S,3S)-N^2-[N-[[(1S)-1-Carboxy-2-indol-3-ylethyl]carbamoyl]-L-alanyl]-N^3-L-methionyl-N^3-methyl-2,3-diaminobutyramido]-3′,5′-dideoxy-α-L-arabinofuranosyl]uracil]
- MIC (μg/ml) Broth microdilution [1]: 64 µg/mL (≈ 82.7 µM)
- MIC (μg/ml) Broth microdilution [2]: 8 µg/mL (≈ 10.3 µM)
- MIC (μg/ml) Broth microdilution [3]: >512 µg/mL
- MIC (μg/ml) Broth microdilution [4]: >512 µg/mL
- MIC (μg/ml) Broth microdilution [5]: >512 µg/mL
- MIC (μg/ml) Broth microdilution [6]: 4 µg/mL (≈ 5.17 µM)
- MIC (μg/ml) Broth microdilution [7]: 256 µg/mL (≈ 331 µM)
- MIC (μg/ml) Broth microdilution [8]: >512 µg/mL
- MIC (μg/ml) Broth microdilution [9]: >512 µg/mL
- MIC (μg/ml) Broth microdilution [10]: 256 µg/mL (≈ 331 µM)

Compound: CC(C(NC(=O)C(Cc1ccc(F)cc1)NC(=O)NC(Cc1c[nH]c2ccccc12)C(=O)O)C(=O)NCC1CC(O)C(n2ccc(=O)[nH]c2=O)O1)N(C)C(=O)CN [Compound 116, 1-[5′-[(2S,3S)-N^2-[N-[[(1S)-1-Carboxy-2-indol-3-ylethyl)carbamoyl]-L-4-fluorophenylalanyl]-N^3-glycyl-N^3-methyl-3-diaminobutyramido]-3′,5′-dideoxy-α-L-arabinofuranosyl]uracil]
- MIC (μg/ml) Broth microdilution [1]: 32 µg/mL (≈ 40.3 µM)
- MIC (μg/ml) Broth microdilution [2]: 8 µg/mL (≈ 10.1 µM)
- MIC (μg/ml) Broth microdilution [3]: >512 µg/mL
- MIC (μg/ml) Broth microdilution [4]: 512 µg/mL (≈ 645 µM)
- MIC (μg/ml) Broth microdilution [5]: 256 µg/mL (≈ 322 µM)
- MIC (μg/ml) Broth microdilution [6]: <1 µg/mL
- MIC (μg/ml) Broth microdilution [7]: 16 µg/mL (≈ 20.2 µM)
- MIC (μg/ml) Broth microdilution [8]: 512 µg/mL (≈ 645 µM)
- MIC (μg/ml) Broth microdilution [9]: 256 µg/mL (≈ 322 µM)
- MIC (μg/ml) Broth microdilution [10]: 128 µg/mL (≈ 161 µM)

Compound: CC(C)C[C@H](NC(=O)N[C@@H](Cc1c[nH]c2ccccc12)C(=O)O)C(=O)N[C@H](C(=O)NC[C@H]1C[C@@H](O)[C@H](n2ccc(=O)[nH]c2=O)O1)[C@H](C)N(C)C(=O)[C@H](C)N [Compound 170, 1-[5′-[(2S,3S)-N^3-L-Alanyl-N^2-[N-[[(1S)-1-carboxy-2-indol-3-ylethyl)carbamoyl]-L-leucinyl]-N^3-methyl-2,3-diaminobutyramido]-3′,5′-dideoxy-α-L-arabinofuranosyl]uracil]
- MIC (μg/ml) Broth microdilution [1]: 64 µg/mL (≈ 84.7 µM)
- MIC (μg/ml) Broth microdilution [2]: 4 µg/mL (≈ 5.29 µM)
- MIC (μg/ml) Broth microdilution [3]: >512 µg/mL
- MIC (μg/ml) Broth microdilution [5]: 128 µg/mL (≈ 169 µM)
- MIC (μg/ml) Broth microdilution [6]: 2 µg/mL (≈ 2.65 µM)
- MIC (μg/ml) Broth microdilution [7]: 1 µg/mL (≈ 1.32 µM)
- MIC (μg/ml) Broth microdilution [8]: >512 µg/mL
- MIC (μg/ml) Broth microdilution [9]: >512 µg/mL

Compound: C[C@H](NC(=O)N[C@@H](Cc1c[nH]c2ccccc12)C(=O)O)C(=O)N[C@H](C(=O)NC[C@H]1C[C@@H](O)[C@H](n2ccc(=O)[nH]c2=O)O1)[C@H](C)N(C)C(=O)[C@@H](C)N [Compound 171, 1-[5′-[(2S,3S)-N^3-D-Alanyl-N^2-[N-[[(1S)-1-carboxy-2-indol-3-ylethyl]carbamoyl]-L-alanyl]-N^3-methyl-2,3-diaminobutyramido]-3′,5′-dideoxy-α-L-arabinofuranosyl]uracil]
- MIC (μg/ml) Broth microdilution [1]: 512 µg/mL (≈ 717 µM)
- MIC (μg/ml) Broth microdilution [2]: 32 µg/mL (≈ 44.8 µM)
- MIC (μg/ml) Broth microdilution [3]: >512 µg/mL
- MIC (μg/ml) Broth microdilution [5]: >512 µg/mL
- MIC (μg/ml) Broth microdilution [6]: 16 µg/mL (≈ 22.4 µM)
- MIC (μg/ml) Broth microdilution [7]: 128 µg/mL (≈ 179 µM)
- MIC (μg/ml) Broth microdilution [8]: >512 µg/mL
- MIC (μg/ml) Broth microdilution [9]: >512 µg/mL

Compound: CC(C(NC(=O)C(Cc1ccccc1)NC(=O)NC(Cc1c[nH]c2ccccc12)C(=O)O)C(=O)NCC1CC(O)C(n2ccc(=O)[nH]c2=O)O1)N(C)C(=O)C(N)CCCCN [Compound 147, 1-[5′-[(2S,3S)-N^2-[N-[[(1S)-1-Carboxy-2-indol-3-ylethyl]carbamoyl]-L-phenylalanyl]-N^3-L-lysinyl-N^3-methyl-2,3-diaminobutyramido]-3′,5′-dideoxy-α-L-arabinofuranosyl]uracil]
- MIC (μg/ml) Broth microdilution [1]: 32 µg/mL (≈ 37.8 µM)
- MIC (μg/ml) Broth microdilution [2]: 16 µg/mL (≈ 18.9 µM)
- MIC (μg/ml) Broth microdilution [3]: >512 µg/mL
- MIC (μg/ml) Broth microdilution [5]: >512 µg/mL
- MIC (μg/ml) Broth microdilution [6]: >512 µg/mL
- MIC (μg/ml) Broth microdilution [7]: >512 µg/mL
- MIC (μg/ml) Broth microdilution [8]: >512 µg/mL
- MIC (μg/ml) Broth microdilution [9]: >512 µg/mL

Compound: Dihydropacidamycin 1 [Compound 5]
- MIC (μg/ml) Broth microdilution [1]: 64 µg/mL
- MIC (μg/ml) Broth microdilution [2]: 16 µg/mL
- MIC (μg/ml) Broth microdilution [3]: >512 µg/mL
- MIC (μg/ml) Broth microdilution [5]: 512 µg/mL
- MIC (μg/ml) Broth microdilution [6]: 8 µg/mL
- MIC (μg/ml) Broth microdilution [7]: 32 µg/mL
- MIC (μg/ml) Broth microdilution [8]: >512 µg/mL
- MIC (μg/ml) Broth microdilution [9]: >512 µg/mL

Compound: C[C@H](N)C(=O)N(C)[C@@H](C)[C@H](NC(=O)[C@H](C)NC(=O)N[C@@H](Cc1c[nH]c2ccccc12)C(=O)O)C(=O)NC[C@@H]1C[C@@H](O)[C@@H](n2ccc(=O)[nH]c2=O)O1 [Compound 172, 1-[5′-[(2S,3S)-N^3-L-Alanyl-N^2-[N-[[(1S)-1-carboxy-2-indol-3-ylethyl]carbamoyl]-L-alanyl]-N^3-methyl-2,3-diaminobutyramido]-3′,5′-dideoxy-α-D-ribofuranosyl]uracil]
- MIC (μg/ml) Broth microdilution [1]: 64 µg/mL (≈ 89.7 µM)
- MIC (μg/ml) Broth microdilution [2]: 4 µg/mL (≈ 5.6 µM)
- MIC (μg/ml) Broth microdilution [3]: >512 µg/mL
- MIC (μg/ml) Broth microdilution [5]: 16 µg/mL (≈ 22.4 µM)
- MIC (μg/ml) Broth microdilution [6]: 128 µg/mL (≈ 179 µM)
- MIC (μg/ml) Broth microdilution [7]: 16 µg/mL (≈ 22.4 µM)
- MIC (μg/ml) Broth microdilution [8]: 512 µg/mL (≈ 717 µM)
- MIC (μg/ml) Broth microdilution [9]: >512 µg/mL
